Test results from US20120270929A1, “MODULATION OF TTC39 EXPRESSION TO INCREASE HDL” (ISIS Pharmaceuticals, Inc., priority 2009, published 2012).
Oligonucleotides are written 5' to 3', each unit as a sugar letter and its base; * is a phosphorothioate linkage, no mark a phosphodiester; rarer units and linkages stand in square brackets, end groups in braces. Plain capitals give the bases only. e = 2'-O-(2-methoxyethyl) (MOE); [5mC] = 5-methylcytosine; d = 2'-deoxy (DNA)

These substances were tested on murine TTC39B mRNA (assay: Antisense inhibition of murine TTC39B in mouse primary hepatocytes, single dose). Details: 100 nM, cytofectin, ~24 h, vs untreated control; gapmers targeted to SEQ ID NO: 6.
Type: cell-based
Protocol: Antisense oligonucleotides targeted to a TTC39B nucleic acid were tested for their effects on TTC39B mRNA in vitro. Cultured mouse primary hepatocytes at a density of 10,000 cells per well were transfected using cytofectin reagent with 100 nM antisense oligonucleotide. After a treatment period of approximately 24 hours, RNA was isolated from the cells and TTC39B mRNA levels were measured by quantitative real-time PCR. TTC39B mRNA levels were adjusted according to total RNA content, as measured by RIBOGREEN®. Results are presented as percent inhibition of TTC39B, relative to untreated control cells.
The chimeric antisense oligonucleotides in Tables 1 and 2 were designed as 5-10-5 MOE gapmers. The gapmers are 20 nucleotides in length, wherein the central gap segment is comprised of 10 2′-deoxynucleotides and is flanked on both sides (in the 5′ and 3′ directions) by wings comprising 5 nucleotides each. Each nucleotide in the 5′ wing segment and each nucleotide in the 3′ wing segment has a 2′-MOE modification. The internucleoside linkages throughout each gapmer are phosphorothioate (P═S) linkages. All cytosine residues throughout each gapmer are 5-methylcytosines. “Target start site” indicates the 5′-most nucleotide to which the gapmer is targeted. “Target stop site” indicates the 3′-most nucleotide to which the gapmer is targeted. Each gapmer listed in Table 1 is targeted to SEQ ID NO: 6 (GENBANK Accession No. NM_027238.2) and each gapmer listed in Table 2 is targeted to SEQ ID NO: 10 (the complement of GENBANK Accession No. NT—039260.7 truncated at nucleotides 22491001 to 22601000), SEQ ID NO: 11 (GENBANK Accession No. BY244623.1), SEQ ID NO: 12 (GENBANK Accession No. BY260936), SEQ ID NO: 13 (GENBANK Accession No. BM935568.1) or SEQ ID NO: 14 (GENBANK Accession No. BY728780.1).

Substance	% inhibition of murine TTC39B mRNA
AAAATATCTCTGAAGTTTAA (antisense eA*eA*eA*eA*eT*dA*dT*d[5mC]*dT*d[5mC]*dT*dG*dA*dA*dG*eT*eT*eT*eA*eA) [ISIS 447136]	24%
ACAAAGTGAAAGCCGCTGGT (antisense eA*e[5mC]*eA*eA*eA*dG*dT*dG*dA*dA*dA*dG*d[5mC]*d[5mC]*dG*e[5mC]*eT*eG*eG*eT) [ISIS 447103]	64%
ACAGTATCTTGAACATGACA (antisense eA*e[5mC]*eA*eG*eT*dA*dT*d[5mC]*dT*dT*dG*dA*dA*d[5mC]*dA*eT*eG*eA*e[5mC]*eA) [ISIS 447147]	46%
AGATACAAGTCCCTTCTGCC (antisense eA*eG*eA*eT*eA*d[5mC]*dA*dA*dG*dT*d[5mC]*d[5mC]*d[5mC]*dT*dT*e[5mC]*eT*eG*e[5mC]*e[5mC]) [ISIS 447137]	50%
AGCATCAAATTAAAGGCCCC (antisense eA*eG*e[5mC]*eA*eT*d[5mC]*dA*dA*dA*dT*dT*dA*dA*dA*dG*eG*e[5mC]*e[5mC]*e[5mC]*e[5mC]) [ISIS 447113]	59%
AGGACCTTGATGGCCTTGTC (antisense eA*eG*eG*eA*e[5mC]*d[5mC]*dT*dT*dG*dA*dT*dG*dG*d[5mC]*d[5mC]*eT*eT*eG*eT*e[5mC]) [ISIS 447130]	44%
AGTATGAGGGAGCCATTTGG (antisense eA*eG*eT*eA*eT*dG*dA*dG*dG*dG*dA*dG*d[5mC]*d[5mC]*dA*eT*eT*eT*eG*eG) [ISIS 447117]	47%
ATCCACATTAATTCCCAGTA (antisense eA*eT*e[5mC]*e[5mC]*eA*d[5mC]*dA*dT*dT*dA*dA*dT*dT*d[5mC]*d[5mC]*e[5mC]*eA*eG*eT*eA) [ISIS 447120]	65%
CAGTAAAGTCTTGATTCTGC (antisense e[5mC]*eA*eG*eT*eA*dA*dA*dG*dT*d[5mC]*dT*dT*dG*dA*dT*eT*e[5mC]*eT*eG*e[5mC]) [ISIS 447126]	58%
CATCATTTCCAGGGCTGGCA (antisense e[5mC]*eA*eT*e[5mC]*eA*dT*dT*dT*d[5mC]*d[5mC]*dA*dG*dG*dG*d[5mC]*eT*eG*eG*e[5mC]*eA) [ISIS 447125]	54%
CCAGACAGACACTCAGACCA (antisense e[5mC]*e[5mC]*eA*eG*eA*d[5mC]*dA*dG*dA*d[5mC]*dA*d[5mC]*dT*d[5mC]*dA*eG*eA*e[5mC]*e[5mC]*eA) [ISIS 447149]	48%
CCCCGTTCCAAGCTTGACTC (antisense e[5mC]*e[5mC]*e[5mC]*e[5mC]*eG*dT*dT*d[5mC]*d[5mC]*dA*dA*dG*d[5mC]*dT*dT*eG*eA*e[5mC]*eT*e[5mC]) [ISIS 447112]	62%
CCGCACACCCACAGGGAACT (antisense e[5mC]*e[5mC]*eG*e[5mC]*eA*d[5mC]*dA*d[5mC]*d[5mC]*d[5mC]*dA*d[5mC]*dA*dG*dG*eG*eA*eA*e[5mC]*eT) [ISIS 447099]	56%
CCTGATAAATCACAAATGCT (antisense e[5mC]*e[5mC]*eT*eG*eA*dT*dA*dA*dA*dT*d[5mC]*dA*d[5mC]*dA*dA*eA*eT*eG*e[5mC]*eT) [ISIS 447150]	46%
CGTGTCATTTATTAAATAAC (antisense e[5mC]*eG*eT*eG*eT*d[5mC]*dA*dT*dT*dT*dA*dT*dT*dA*dA*eA*eT*eA*eA*e[5mC]) [ISIS 447154]	22%
CTTTATTGTACCTGCCAGTC (antisense e[5mC]*eT*eT*eT*eA*dT*dT*dG*dT*dA*d[5mC]*d[5mC]*dT*dG*d[5mC]*e[5mC]*eA*eG*eT*e[5mC]) [ISIS 447134]	53%
GACAGCCTGCAACACCACAA (antisense eG*eA*e[5mC]*eA*eG*d[5mC]*d[5mC]*dT*dG*d[5mC]*dA*dA*d[5mC]*dA*d[5mC]*e[5mC]*eA*e[5mC]*eA*eA) [ISIS 447105]	52%
GACTTTGAGATGGCACACAA (antisense eG*eA*e[5mC]*eT*eT*dT*dG*dA*dG*dA*dT*dG*dG*d[5mC]*dA*e[5mC]*eA*e[5mC]*eA*eA) [ISIS 447152]	60%
GACTTTTAATTCAAAGTCCT (antisense eG*eA*e[5mC]*eT*eT*dT*dT*dA*dA*dT*dT*d[5mC]*dA*dA*dA*eG*eT*e[5mC]*e[5mC]*eT) [ISIS 447153]	58%
GAGTACATTCAAATACAGGA (antisense eG*eA*eG*eT*eA*d[5mC]*dA*dT*dT*d[5mC]*dA*dA*dA*dT*dA*e[5mC]*eA*eG*eG*eA) [ISIS 447139]	58%
GCAGCCATGGCCCTGGGTCA (antisense eG*e[5mC]*eA*eG*e[5mC]*d[5mC]*dA*dT*dG*dG*d[5mC]*d[5mC]*d[5mC]*dT*dG*eG*eG*eT*e[5mC]*eA) [ISIS 447141]	40%
GCAGCTTTCAAGAACACATA (antisense eG*e[5mC]*eA*eG*e[5mC]*dT*dT*dT*d[5mC]*dA*dA*dG*dA*dA*d[5mC]*eA*e[5mC]*eA*eT*eA) [ISIS 447123]	47%

Same assay, conditions: 100 nM, cytofectin, ~24 h, vs untreated control; gapmers targeted to SEQ ID NO: 10-14

Substance	% inhibition of murine TTC39B mRNA
AAAGAGGAGTCCTTCCTTAA (antisense eA*eA*eA*eG*eA*dG*dG*dA*dG*dT*d[5mC]*d[5mC]*dT*dT*d[5mC]*e[5mC]*eT*eT*eA*eA) [ISIS 447160]	63%
ACTCAGTCATACTTTTGGCA (antisense eA*e[5mC]*eT*e[5mC]*eA*dG*dT*d[5mC]*dA*dT*dA*d[5mC]*dT*dT*dT*eT*eG*eG*e[5mC]*eA) [ISIS 447168]	35%
AGCCTTGTTCACTGGGAAGA (antisense eA*eG*e[5mC]*e[5mC]*eT*dT*dG*dT*dT*d[5mC]*dA*d[5mC]*dT*dG*dG*eG*eA*eA*eG*eA) [ISIS 447162]	59%
ATCATATTTTCATCCTGAAA (antisense eA*eT*e[5mC]*eA*eT*dA*dT*dT*dT*dT*d[5mC]*dA*dT*d[5mC]*d[5mC]*eT*eG*eA*eA*eA) [ISIS 447170]	35%
CCTTACCAAATTAAAGGCCC (antisense e[5mC]*e[5mC]*eT*eT*eA*d[5mC]*d[5mC]*dA*dA*dA*dT*dT*dA*dA*dA*eG*eG*e[5mC]*e[5mC]*e[5mC]) [ISIS 447171]	23%
CGGAGATCAGTTTCTTCACT (antisense e[5mC]*eG*eG*eA*eG*dA*dT*d[5mC]*dA*dG*dT*dT*dT*d[5mC]*dT*eT*e[5mC]*eA*e[5mC]*eT) [ISIS 447165]	50%
CTGATGAACTTGATTTAGCC (antisense e[5mC]*eT*eG*eA*eT*dG*dA*dA*d[5mC]*dT*dT*dG*dA*dT*dT*eT*eA*eG*e[5mC]*e[5mC]) [ISIS 447166]	0%
GAATTATTTATTCTCACACC (antisense eG*eA*eA*eT*eT*dA*dT*dT*dT*dA*dT*dT*d[5mC]*dT*d[5mC]*eA*e[5mC]*eA*e[5mC]*e[5mC]) [ISIS 447167]	56%
GCCAGCCAGGGCAGGCACTC (antisense eG*e[5mC]*e[5mC]*eA*eG*d[5mC]*d[5mC]*dA*dG*dG*dG*d[5mC]*dA*dG*dG*e[5mC]*eA*e[5mC]*eT*e[5mC]) [ISIS 447163]	50%
GCCCATGCACGGGTGGAGGA (antisense eG*e[5mC]*e[5mC]*e[5mC]*eA*dT*dG*d[5mC]*dA*d[5mC]*dG*dG*dG*dT*dG*eG*eA*eG*eG*eA) [ISIS 447156]	16%

These substances were tested on murine TTC39C mRNA (assay: Dose-dependent antisense inhibition of murine TTC39C in mouse primary hepatocytes). Details: 500.0 nM, electroporation, ~16 h.
Type: cell-based
Protocol: Thirty antisense oligonucleotides were selected from the study described in Example 8 and further tested at various doses in mouse primary hepatocytes. Cells were plated at a density of 30,000 cells per well and transfected using electroporation with 500 nM, 1,000 nM, 2,000 nM, 4,000 nM, and 8,000 nM concentrations of antisense oligonucleotide, as specified in Table 30. After a treatment period of approximately 16 hours, RNA was isolated from the cells and TTC39C mRNA levels were measured by quantitative real-time PCR. Murine primer probe set RTS3266 was used to measure mRNA levels. TTC39C mRNA levels were adjusted according to total RNA content, as measured by RIBOGREEN®. Results are presented as percent inhibition of TTC39C, relative to untreated control cells.

Substance	percent inhibition of TTC39C mRNA
ISIS 474654: 5-10-5 MOE gapmer antisense oligonucleotide targeting murine TTC39C (antisense eT*e[5mC]*eA*eG*e[5mC]*dT*dA*d[5mC]*dA*dG*dA*dA*d[5mC]*dG*d[5mC]*eA*eG*eG*eG*eT)	11%

Same assay, conditions: 1000.0 nM, electroporation, ~16 h

Substance	percent inhibition of TTC39C mRNA
ISIS 474654: 5-10-5 MOE gapmer antisense oligonucleotide targeting murine TTC39C (antisense eT*e[5mC]*eA*eG*e[5mC]*dT*dA*d[5mC]*dA*dG*dA*dA*d[5mC]*dG*d[5mC]*eA*eG*eG*eG*eT)	14%

Same assay, conditions: 2000.0 nM, electroporation, ~16 h

Substance	percent inhibition of TTC39C mRNA
ISIS 474654: 5-10-5 MOE gapmer antisense oligonucleotide targeting murine TTC39C (antisense eT*e[5mC]*eA*eG*e[5mC]*dT*dA*d[5mC]*dA*dG*dA*dA*d[5mC]*dG*d[5mC]*eA*eG*eG*eG*eT)	38%

Same assay, conditions: 4000.0 nM, electroporation, ~16 h

Substance	percent inhibition of TTC39C mRNA
ISIS 474654: 5-10-5 MOE gapmer antisense oligonucleotide targeting murine TTC39C (antisense eT*e[5mC]*eA*eG*e[5mC]*dT*dA*d[5mC]*dA*dG*dA*dA*d[5mC]*dG*d[5mC]*eA*eG*eG*eG*eT)	60%

Same assay, conditions: 8000.0 nM, electroporation, ~16 h

Substance	percent inhibition of TTC39C mRNA
ISIS 474654: 5-10-5 MOE gapmer antisense oligonucleotide targeting murine TTC39C (antisense eT*e[5mC]*eA*eG*e[5mC]*dT*dA*d[5mC]*dA*dG*dA*dA*d[5mC]*dG*d[5mC]*eA*eG*eG*eG*eT)	74%

Same assay, conditions: mouse primary hepatocytes, electroporation, ~16 h

Substance	IC50
ISIS 474654: 5-10-5 MOE gapmer antisense oligonucleotide targeting murine TTC39C (antisense eT*e[5mC]*eA*eG*e[5mC]*dT*dA*d[5mC]*dA*dG*dA*dA*d[5mC]*dG*d[5mC]*eA*eG*eG*eG*eT)	3.1 µM
